Reference: BindingDB's records for doi:10.1111/j.1747-0285.2007.00590.x (2007)

Experiments:
[1] = molecular target: T1, Hyaluronidase-1 (Homo sapiens, UniProt Q12794); assay: Morgan-Elson Assay; details: pH 3.5; 37 °C
T1 sequence (Q12794 whole entry): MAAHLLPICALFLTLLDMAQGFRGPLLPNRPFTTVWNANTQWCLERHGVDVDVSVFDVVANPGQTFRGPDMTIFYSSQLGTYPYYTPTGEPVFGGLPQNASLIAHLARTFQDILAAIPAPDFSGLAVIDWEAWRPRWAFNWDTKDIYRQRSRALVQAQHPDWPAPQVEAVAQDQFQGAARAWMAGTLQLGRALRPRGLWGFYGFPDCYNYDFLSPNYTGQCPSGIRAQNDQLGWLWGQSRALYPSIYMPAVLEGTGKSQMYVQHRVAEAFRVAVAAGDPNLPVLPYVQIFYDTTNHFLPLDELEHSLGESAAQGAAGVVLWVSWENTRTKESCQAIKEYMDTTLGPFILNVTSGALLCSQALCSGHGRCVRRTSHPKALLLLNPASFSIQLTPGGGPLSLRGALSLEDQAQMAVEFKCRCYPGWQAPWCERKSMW
Source text: Morgan-elson assay were used to test inhibitors at pH of 3.5.

[2] = molecular target: T1, Hyaluronidase-1; assay: Stains-all Assay; details: pH 7; 37 °C
Source text: Stains-all assay were used to test inhibitors at pH of 7.

| Compound | IC50 [1] | IC50 [2] |
| --- | --- | --- |
| O=C(NCc1ccccc1)c1cc2ccccc2n1Cc1ccccc1 [N-Substituted indole-2- and 3-carboxamide derivative, 1] | 78.2 µM | 40.3 µM |
| O=C(NCc1ccc(Cl)cc1)c1cc2ccccc2n1Cc1ccccc1 [N-Substituted indole-2- and 3-carboxamide derivative, 2] | 64.3 µM | 33.2 µM |
| O=C(NCc1ccc(F)cc1)c1cc2ccccc2n1Cc1ccccc1 [N-Substituted indole-2- and 3-carboxamide derivative, 3] | – | 27.2 µM |
| O=C(NCc1ccccc1)c1cc2ccccc2n1Cc1ccc(F)cc1 [N-Substituted indole-2- and 3-carboxamide derivative, 6] | – | 41.1 µM |
| O=C(NCc1ccc(Cl)cc1)c1cc2ccccc2n1Cc1ccc(F)cc1 [N-Substituted indole-2- and 3-carboxamide derivative, 7] | – | 33 µM |
| O=C(NCc1ccc(F)cc1)c1cc2ccccc2n1Cc1ccc(F)cc1 [N-Substituted indole-2- and 3-carboxamide derivative, 8] | – | 29.9 µM |
| O=C(NCc1ccccc1)c1cn(Cc2ccc(F)cc2)c2ccccc12 [N-Substituted indole-2- and 3-carboxamide derivative, 16] | 61.6 µM | 33 µM |
| O=C(NCc1ccc(Cl)cc1)c1cn(Cc2ccc(F)cc2)c2ccccc12 [N-Substituted indole-2- and 3-carboxamide derivative, 17] | 72.9 µM | 33.7 µM |
| O=C(NCc1ccc(F)cc1)c1cn(Cc2ccc(F)cc2)c2ccccc12 [N-Substituted indole-2- and 3-carboxamide derivative, 18] | 56.7 µM | 25.7 µM |
